Usually melting point stands for the temperature of the solid-liquid transition.

The record followed here is patent US20040063730A1, “Pharmacuetical formulation comprising puyrazolo[4,-3-d]pyrimidines and antithrombotics, calcium antagonists, or prostaglandins or prostaglandin derivatives” (priority 2000, published 2004).

Consider `CCCc1nn(C)c2c(NCc3ccc(OC)c(Cl)c3)nc(CCC(=O)O)nc12` [Example 2, 3-[7-(3-chloro-4-methoxybenzylamino)-1-methyl-3-propyl-1H-pyrazolo-[4,3-d]pyrimidin-5-yl]propionic acid], for which the melting point is 178 °C.
